This note sets out measurements from patent US20230391766A1, “1-(2-(4-CYCLOPROPYL-1H-1,2,3-TRIAZOL-1-YL)ACETYL)-4-HYDROXY-N-(BENZYL)PYRROLIDIN E-2-CARBOXAMIDE DERIVATIVES AS VHL INHIBITORS FOR THE TREATMENT OF ANEMIA AND CANCER” (Genentech, Inc., priority 2020, published 2023).

For orientation: EC50 means the concentration giving half of the maximal effect.

Data set [1] has as its target T1, VHL (Homo sapiens, UniProt P40337).
T1 construct: expressed in transfected cells
Kind of data set: VHL nanoBRET (+ Digitonin). The format is cell-based. On the procedure:
(§1) The VHL NanoBRET™ Target Engagement Assay analyzes the apparent affinity of test compounds for VHL in cells by competitive displacement of a VHL NanoBRET™ tracer reversibly bound to a NanoLuc® VHL fusion protein stably expressed in the cells.
(§2) 50 nL of control compound (10 mM; parental unlabeled VHL antagonist; see structure below) and 50 nL of DMSO (negative control) were dispensed into the appropriate control wells. DMSO was backfilled to a final volume of 50 nL as required. […] Max Signal control wells consisted of DMSO only treated wells. Minimum Signal control wells contained of 10 uM parental unlabeled VHL antagonist (control compound—see structure below). […] Background Signal control wells were prepared without tracer for background correction steps.
(§3) The raw BRET ratio values were calculated by dividing the acceptor emission value (610 nm) by the donor emission value (460 nm) for each sample. To correct for background, the BRET ratio in the absence of tracer (average of no-tracer control samples) was subtracted from the BRET ratio of each sample. Raw BRET units were converted to milliBRET units (mBU) by multiplying each raw BRET value by 1,000. The normalized NanoBRET™ signal was calculated relative to the Max Signal control wells (DMSO treated control wells) and the Minimum Signal control wells. Percentage inhibition was calculated relative to the Minimum Signal control and Maximum Signal control wells. IC50 values were derived by four parameter curve fitting using the Robust method.
For orientation: In BRET a luciferase serves as donor, and the signal depends on an acceptor being close.

Data set [2] concerns the target T1, VHL. Put plainly: VHL HEK-293 BRET Assay (VHL NanoBRET Target Engagement Assay). It is filed as cell-based. The conditions noted are these: for IC50: HEK 293 RT VHL-NanoLuc stable cells, 1 uM tracer, 2 hours, geometric mean where more than one measurement, read-out: VHL binding in cells (HEK293 nanoBRET); for Ratio cell permeability shift: ratio not defined. The procedure:
as §1, §2, §3

A value given as a limit tells only on which side of the number the result lay.

T1 sequence (P40337 whole entry): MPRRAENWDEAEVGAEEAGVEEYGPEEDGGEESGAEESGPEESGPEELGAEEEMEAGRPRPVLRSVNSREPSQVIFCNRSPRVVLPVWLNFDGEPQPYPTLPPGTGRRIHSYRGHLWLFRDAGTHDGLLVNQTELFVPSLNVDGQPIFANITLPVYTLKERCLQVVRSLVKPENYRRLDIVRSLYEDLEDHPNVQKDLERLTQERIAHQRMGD

`COC(=O)c1nnn([C@@H](C(=O)N2C[C@H](O)C[C@H]2C(=O)N[C@H](Cc2ccc(-c3ccccc3)cc2)C(N)=O)C(C)C)c1C` (single isomer, unassigned) [Isomer A from Example S33]: the concentration for a half-maximal effect (EC50) in data set [1] was found to be 43700 nM. Besides, in data set [2], the IC50 was found to be 62500 nM and the “Ratio cell permeability shift” value came to 1.43.

`CC(C)[C@@H](C(=O)N1C[C@H](O)C[C@H]1C(=O)N[C@H](Cc1ccc(-c2ccccc2)cc1)C(N)=O)n1nnc2ccccc21` (single isomer, unassigned) [Isomer A from Example S36] showed an EC50 in data set [1] of 390 nM. For the same molecule, in data set [2], the IC50 is 300 nM and the “Ratio cell permeability shift” value worked out at 0.77.

`COC(=O)c1nnn([C@H](C(=O)N2C[C@H](O)C[C@H]2C(=O)N[C@H](Cc2ccc(-c3ccccc3)cc2)C(N)=O)C(C)C)c1C` (single isomer, unassigned) [Isomer B from Example S33] gave an EC50 in data set [1] of 990 nM. Also, in data set [2], the IC50 was determined as 1620 nM and the “Ratio cell permeability shift” value was found to be 1.64.

`CC(C)[C@H](C(=O)N1C[C@H](O)C[C@H]1C(=O)N[C@H](Cc1ccc(-c2ccccc2)cc1)C(N)=O)n1nnc2ccccc21` (single isomer, unassigned) [Isomer B from Example S36] returned an EC50 in data set [1] of 68000 nM. For the same molecule, in data set [2], the IC50 is 68500 nM and the “Ratio cell permeability shift” value amounted to 1.01.

In the case of `C#CC1(c2cn([C@H](C(=O)N3C[C@H](O)C[C@H]3C(=O)NCc3ccc(-c4scnc4C)cc3)C(C)(C)C)nn2)CC1` [Compound 30, (2S,4R)-1-((S)-2-(4-(1-ethynylcyclopropyl)-1H-1,2,3-triazol-1-yl)-3,3-dimethylbutanoyl)-4-hydroxy-N-(4-(4-methylthiazol-5-yl)benzyl)pyrrolidine-2-carboxamide], the EC50 in data set [1] amounted to 20 nM. For the same molecule, in data set [2], the IC50 turned out to be 20 nM and the “Ratio cell permeability shift” value is 1.15.

For `Cc1ncsc1-c1ccc(CNC(=O)[C@@H]2C[C@@H](O)CN2C(=O)[C@@H](n2cc(C3(c4cn([C@H](C(=O)N5C[C@H](O)C[C@H]5C(=O)NCc5ccc(-c6scnc6C)cc5)C(C)(C)C)nn4)CC3)nn2)C(C)(C)C)cc1` [Compound 31, (2S,2'S,4R,4′R)-1,1′-((2S,2'S)-2,2′-(cyclopropane-1,1-diylbis(JH-1,2,3-triazole-4,1-diyl))bis(3,3-dimethylbutanoyl))bis(4-hydroxy-N-(4-(4-methylthiazol-5-yl)benzyl)pyrrolidine-2-carboxamide)], the 50% effective concentration (EC50) in data set [1] was 20 nM. In data set [2], the IC50 turned out to be 310 nM and the “Ratio cell permeability shift” value came to 19.75.

Regarding `NC(=O)[C@@H](Cc1ccc(-c2ccccc2)cc1)NC(=O)[C@@H]1C[C@@H](O)CN1C(=O)[C@H](C1CCC1)n1cc(C2CC2)nn1` [Example S4, (2S,4R)—N—((R)-3-([1,1′-biphenyl]-4-yl)-1-amino-1-oxopropan-2-yl)-1-((S)-2-cyclobutyl-2-(4-cyclopropyl-1H-1,2,3-triazol-1-yl)acetyl)-4-hydroxypyrrolidine-2-carboxamide], the EC50 in data set [1] came out at 200 nM. Moreover, in data set [2], the IC50 stood at 190 nM and the “Ratio cell permeability shift” value was 0.96.

In turn, `CC[C@H](C)[C@@H](C(=O)N1C[C@H](O)C[C@H]1C(=O)N[C@H](Cc1ccc(-c2ccccc2)cc1)C(N)=O)n1cc(C2CC2)nn1` [Example S5, (2S,4R)—N—((R)-3-([1,1′-biphenyl]-4-yl)-1-amino-1-oxopropan-2-yl)-1-((2S,3S)-2-(4-cyclopropyl-1H-1,2,3-triazol-1-yl)-3-methylpentanoyl)-4-hydroxypyrrolidine-2-carboxamide] gave a 50% effective concentration (EC50) in data set [1] of 170 nM. Also, in data set [2], the IC50 turned out to be 130 nM and the “Ratio cell permeability shift” value is 0.77.

In data set [1], `CCC(C)(C)[C@@H](C(=O)N1C[C@H](O)C[C@H]1C(=O)N[C@H](Cc1ccc(-c2ccccc2)cc1)C(N)=O)n1cc(C2CC2)nn1` [Example S6, (2S,4R)—N—((R)-3-([1,1′-biphenyl]-4-yl)-1-amino-1-oxopropan-2-yl)-1-((S)-2-(4-cyclopropyl-1H-1,2,3-triazol-1-yl)-3,3-dimethylpentanoyl)-4-hydroxypyrrolidine-2-carboxamide] came in with an EC50 of 140 nM. Also, in data set [2], the IC50 was determined as 100 nM and the “Ratio cell permeability shift” value amounted to 0.76.

Regarding `C=CC(C)(C)[C@@H](C(=O)N1C[C@H](O)C[C@H]1C(=O)N[C@H](Cc1ccc(-c2ccccc2)cc1)C(N)=O)n1cc(C2CC2)nn1` [Example S7, (2S,4R)—N—((R)-3-([1,1′-biphenyl]-4-yl)-1-amino-1-oxopropan-2-yl)-1-((S)-2-(4-cyclopropyl-1H-1,2,3-triazol-1-yl)-3,3-dimethylpent-4-enoyl)-4-hydroxypyrrolidine-2-carboxamide], the concentration giving a half-maximal response (EC50) in data set [1] amounted to 160 nM. Besides, in data set [2], the IC50 amounted to 110 nM and the “Ratio cell permeability shift” value worked out at 0.68.

`NC(=O)[C@@H](Cc1ccc(-c2ccccc2)cc1)NC(=O)[C@@H]1C[C@@H](O)CN1C(=O)[C@@H](n1cc(C2CC2)nn1)C12CC3CC(CC(C3)C1)C2` [Example S8, (2S,4R)—N—((R)-3-([1,1′-biphenyl]-4-yl)-1-amino-1-oxopropan-2-yl)-1-((2S)-2-(adamantan-1-yl)-2-(4-cyclopropyl-1H-1,2,3-triazol-1-yl)acetyl)-4-hydroxypyrrolidine-2-carboxamide] had an EC50 in data set [1] of 160 nM. In data set [2], the IC50 was 120 nM and the “Ratio cell permeability shift” value is recorded as 0.73.

`CC(=O)NCC1(c2cn([C@@H](C(=O)N3C[C@H](O)C[C@H]3C(=O)N[C@H](Cc3ccc(-c4ccccc4)cc3)C(N)=O)C(C)(C)C)nn2)CC1` [Example S12, (2S,4R)—N—((R)-3-([1,1′-biphenyl]-4-yl)-1-amino-1-oxopropan-2-yl)-1-((R)-2-(4-(1-(acetamidomethyl)cyclopropyl)-1H-1,2,3-triazol-1-yl)-3,3-dimethylbutanoyl)-4-hydroxypyrrolidine-2-carboxamide] registered a concentration giving a half-maximal response (EC50) in data set [1] of 24500 nM. For the same molecule, the IC50 in data set [2] is greater than 100000 nM.

In turn, `CC(=O)NCC1(c2cn([C@H](C(=O)N3C[C@H](O)C[C@H]3C(=O)N[C@H](Cc3ccc(-c4ccccc4)cc3)C(N)=O)C(C)(C)C)nn2)CC1` [Example S13, (2S,4R)—N—((R)-3-([1,1′-biphenyl]-4-yl)-1-amino-1-oxopropan-2-yl)-1-((S)-2-(4-(1-(acetamidomethyl)cyclopropyl)-1H-1,2,3-triazol-1-yl)-3,3-dimethylbutanoyl)-4-hydroxypyrrolidine-2-carboxamide] displayed a 50% effective concentration (EC50) in data set [1] of 220 nM. For the same molecule, in data set [2], the IC50 was determined as 2270 nM and the “Ratio cell permeability shift” value stood at 10.22.

`CC(C)(C)[C@@H](C(=O)N1C[C@H](O)C[C@H]1C(=O)N[C@H](Cc1ccc(-c2ccccc2)cc1)C(N)=O)n1cc(C(=O)O)nn1` [Example S15, 1-((S)-1-((2S,4R)-2-(((R)-3-([1,1′-biphenyl]-4-yl)-1-amino-1-oxopropan-2-yl)carbamoyl)-4-hydroxypyrrolidin-1-yl)-3,3-dimethyl-1-oxobutan-2-yl)-1H-1,2,3-triazole-4-carboxylic acid]: in data set [1], the midpoint of the response, the EC50, lay at 610 nM. Also, in data set [2], the IC50 turned out to be 69800 nM and the “Ratio cell permeability shift” value was determined as 115.18.

Turning to `CC(C)(C)[C@@H](C(=O)N1C[C@H](O)C[C@H]1C(=O)N[C@H](Cc1ccc(-c2ccccc2)cc1)C(N)=O)n1cc(C(N)=O)nn1` [Example S16, 1-((S)-1-((2S,4R)-2-(((R)-3-([1,1′-biphenyl]-4-yl)-1-amino-1-oxopropan-2-yl)carbamoyl)-4-hydroxypyrrolidin-1-yl)-3,3-dimethyl-1-oxobutan-2-yl)-1H-1,2,3-triazole-4-carboxamide], the response in data set [1] was half-maximal at 400 nM (EC50). In addition, in data set [2], the IC50 is 3310 nM and the “Ratio cell permeability shift” value amounted to 8.30.

Turning to `Cc1ncsc1-c1ccc(CNC(=O)[C@@H]2C[C@@H](O)CN2C(=O)[C@H](C2CCCCC2)n2cc(C3CC3)nn2)cc1` [Example S25, (2S,4R)-1-((S)-2-cyclohexyl-2-(4-cyclopropyl-1H-1,2,3-triazol-1-yl)acetyl)-4-hydroxy-N-(4-(4-methylthiazol-5-yl)benzyl)pyrrolidine-2-carboxamide], the “Ratio cell permeability shift” value in data set [2] turned out to be 0.67.

With `Cc1c(C(=O)O)nnn1[C@@H](C(=O)N1C[C@H](O)C[C@H]1C(=O)N[C@H](Cc1ccc(-c2ccccc2)cc1)C(N)=O)C(C)C` [Example S34, 1-((R)-1-((2S,4R)-2-(((R)-3-([1,1′-biphenyl]-4-yl)-1-amino-1-oxopropan-2-yl)carbamoyl)-4-hydroxypyrrolidin-1-yl)-3-methyl-1-oxobutan-2-yl)-5-methyl-1H-1,2,3-triazole-4-carboxylic acid], the concentration giving a half-maximal response (EC50) in data set [1] is greater than 100000 nM.

For `Cc1c(C(=O)O)nnn1[C@H](C(=O)N1C[C@H](O)C[C@H]1C(=O)N[C@H](Cc1ccc(-c2ccccc2)cc1)C(N)=O)C(C)C` [Example S35, 1-((S)-1-((2S,4R)-2-(((R)-3-([1,1′-biphenyl]-4-yl)-1-amino-1-oxopropan-2-yl)carbamoyl)-4-hydroxypyrrolidin-1-yl)-3-methyl-1-oxobutan-2-yl)-5-methyl-1H-1,2,3-triazole-4-carboxylic acid], in data set [1], the EC50 came to 13000 nM.
